# Read-outs that look alike come from different tables or passages of the source.
# How the values were obtained:
# [1] = tested on: AR; experiment: AR-driven gene expression in LNCaP cells stimulated with DHT; format: cell-based; conditions: PSA (KLK3), TMPRSS2, SLC45A3; DHT induction; 30, 300, 3000 nM
# Procedure: Compound 1 concentrations from left to right: 30, 300, 3000 nM. Basal level indicates expression level in cells with no DHT treatment.
# In SCLC, the expression of p300 and CBP is associated with poor prognosis (see Gao et al, Int J Clin Exp Pathol. 2014 Jan. 15; 7(2):760-7) with high p300 and CBP expressions being independent prognostic markers of poor overall survival (OS) for resected SCLC patients.
# [2] = tested on: PR6512; experiment: PR6512 mouse PDX prostate cancer model, daily oral; format: in vivo
# From the text: FIG. 7B the efficacy of Compound 1 in the in vivo mouse PDX prostate cancer model PR6512. […] QD: once daily treatment. po: per os.
# Again, an effect of the body weight was detected in all treatment groups (including the vehicle group).
# [3] = tested on: 22Rv1; experiment: Caspase 3/7 activation (apoptosis); format: cell-based; set-up: key: “+” (present); “−” (absent); conditions: Rb wt, p53 wt
# From the text: (§1) It was noted that cancer cell lines that were growth inhibited at lower concentrations of Compound 1 more frequently responded to Compound 1 exposure with an apoptotic reaction (FIG. 2). Since PC cell lines were among the cancer cell types displaying a particularly high sensitivity to Compound 1 treatment (FIG. 1), the potentially underlying biological reasons for an apoptotic response were investigated in a set of PC cell lines consisting of DU-145, LNCaP, 22Rv1 and PC3 cells.
# (§2) In table 1, “wt”=wild-type; “x”=cells harboring Rb and p53 deficiencies; “+” (present) or “−” (absent) indicate the arrest (i.e. accumulation) of cells in S-phase triggered by Compound 1, which coincided with accumulation of the DNA damage marker phosphorylated gamma H2AX (γH2AX; see FIG. 3A). These events are followed by activation of caspases 3 and 7 as indicators of cell apoptosis as indicated by “+” (present) or “−” (absent). In cancer cells with intact Rb and/or p53 functions (wt=wild-type), Compound 1 induced growth arrest but not a substantial increase of cells in S-phase (=S-phase arrest). Upon release of treatment, such cells are able to proliferate again.
# [4] = tested on: NCI-H660; experiment: Caspase 3/7 activation (apoptosis); format: cell-based; set-up: key: “+” (present); “−” (absent); conditions: Rb x, p53 x
# From the text: as §1, §2
# [5] = tested on: NCI-H82; experiment: Caspase 3/7 activation (apoptosis); format: cell-based; set-up: key: “+” (present); “−” (absent); conditions: Rb x, p53 x
# From the text: as §1, §2
# [6] = tested on: Hut-78; experiment: Caspase 3/7 activation (apoptosis); format: cell-based; set-up: key: “+” (present); “−” (absent); conditions: Rb x, p53 x
# From the text: as §1, §2
# [7] = tested on: LNCaP; experiment: Caspase 3/7 activation (apoptosis); format: cell-based; set-up: key: “+” (present); “−” (absent); conditions: Rb wt, p53 wt
# From the text: as §1, §2
# [8] = tested on: SCLC-21H; experiment: Caspase 3/7 activation (apoptosis); format: cell-based; set-up: key: “+” (present); “−” (absent); conditions: Rb x, p53 x
# From the text: as §1, §2
# [9] = tested on: DU-145; experiment: Caspase 3/7 activation (apoptosis); format: cell-based; set-up: key: “+” (present); “−” (absent); conditions: Rb x, p53 x
# From the text: as §1, §2
# [10] = tested on: PC3; experiment: Caspase 3/7 activation (apoptosis); format: cell-based; set-up: key: “+” (present); “−” (absent); conditions: Rb wt, p53 x
# From the text: as §1, §2
# [11] = tested on: NCI-H146; experiment: Caspase 3/7 activation (apoptosis); format: cell-based; set-up: key: “+” (present); “−” (absent); conditions: Rb x, p53 x
# From the text: as §1, §2
# [12] = tested on: NCI-H69; experiment: Caspase 3/7 activation (apoptosis); format: cell-based; set-up: key: “+” (present); “−” (absent); conditions: Rb x, p53 x
# From the text: as §1, §2
# [13] = tested on: NCI-H209; experiment: Caspase 3/7 activation (apoptosis); format: cell-based; set-up: key: “+” (present); “−” (absent); conditions: Rb x, p53 x
# From the text: as §1, §2
# [14] = tested on: p300; experiment: Western blot of p53 acetylated by p300 on K382 in LNCaP cells; format: cell-based
# Procedure: Top panel: Cell cycle distribution in LNCap cells treated with siRNA (2 bars on the right) in comparison to control LNCaP cells without siRNA treatment (2 bars in the middle), in the absence (−) or presence (+) of Compound 1 for 24 h at the indicated concentration. For comparison, DU-145 cells harboring a combined Rb1 and p53 loss-of-function are included (2 bars on the left). Lower panel: Western blot analysis according to the same experimental conditions as given for the top panel.
# [15] = 14-day daily oral repeated-dose DRF study in Beagle dogs (citrate salt); format: in vivo; conditions: for Cmax / Tmax / half-life: both sexes, Beagle, dog, plasma, po
# Procedure: The objective of this dose-range-finding study was to select the dose levels for a potential subsequent toxicity study of Compound 1 by oral administration to Beagle dogs.
# Compound 1 (citrate salt) administration in this study was intended once daily for up to 14 consecutive days by oral gavage to groups of naïve Beagle dogs (n=1/sex/group) at dose levels of 0.1, 0.3, 1, 3, 6, or 12 mg Compound 1 per kg bodyweight and day in 0.5% methylcellulose by using a staggered approach. The actual dose levels and durations of dosing were flexibly adapted according to PK and signs of tolerability. For TK evaluation blood samples were collected from each dog on Days 1 and 14 at pre-dose, 1, 2, 4, 8, 12, and 24 hours post-dose.
# [16] = tested on: NCI-H660; experiment: NCI-H660 prostate cancer CDX mouse model; format: in vivo; conditions: for Tumor growth inhibition: 6 weeks
# From the text: Left panel: Tumor growth curves. Right panel: Body weight development. The dosing regimen is indicated as dots below the curves. BID: twice daily treatment. QW: once weekly treatment. p.o.: per oral.
# NCI-H660 cells represent a rather far advanced PC type in which not only the tumor suppressor functions of Rb1 and p53 have been lost (see Table 1). Furthermore, the cells already have developed a small cell phenotype characteristic of advanced treatment-resistant PC. In contrast, 22Rv1 tumor cells that are wild-type for Rb1 and p53 pathways were less sensitive to Compound 1 treatment when a once weekly dosing scheme was used.
# Values larger than 100% indicate tumor regression.
smiles,measurement,setting,value
"CC(C)C[C@@H]1NCCN([C@@H](CC(C)C)C(=O)N2CCC3(C[C@@H]2C)OCC(CN2CCCC2)CO3)C1=O (stereo partly drawn) [Compound 1, (S)-3-isobutyl-1-((S)-4-methyl-1-((S)-8-methyl-3-(pyrrolidin-1-ylmethyl)-1,5-dioxa-9-azaspiro[5.5]undecan-9-yl)-1-oxopentan-2-yl)piperazin-2-one]",AR target gene expression,[1],effectively downregulates target genes
same,tumor growth,[2]; 3 mg/kg QD,complete block of tumor growth
same,tumor growth,"[2]; 1, 1.5, 2, and 3 mg/kg daily oral",dose dependent growth inhibition of tumors
same,PSA in blood,[2]; PR6512,effective PSA reduction
same,"Caspase 3/7, 8",[3],−
same,Caspase 3/7 activation,[4],+
same,"Caspase 3/7, 8",[5],+
same,"Caspase 3/7, 8",[6],+
same,"Caspase 3/7, 8",[7],−
same,"Caspase 3/7, 8",[8],+
same,"Caspase 3/7, 8",[9],+
same,"Caspase 3/7, 8",[10],−
same,"Caspase 3/7, 8",[11],+
same,"Caspase 3/7, 8",[12],+
same,"Caspase 3/7, 8",[13],+
same,amount of p53 acetylated by p300 on K382,[14]; control LNCaP cells,increased
same,HAT/KAT activity of p300,[14]; inferred from p53 K382 acetylation,not inhibited
same,accumulation of drug exposure (Day 1 versus Day 14),[15]; 0.1 mg/kg/day,no accumulation with time
same,Total AUC(o-inf),"[15]; 0.1 mg/kg/day, Day 1",5.6 ng·h/mL
same,accumulation of drug exposure (Day 1 versus Day 14),[15]; 0.3 mg/kg/day,slight increase over time
same,Total AUC(o-inf),"[15]; 0.3 mg/kg/day, Day 1",13.8 ng·h/mL
same,Total AUC(o-inf),"[15]; 1 mg/kg/day, Day 1",63.8 ng·h/mL
same,Total AUC(o-inf),"[15]; 3 mg/kg/day, Day 1",171.6 ng·h/mL
same,Total AUC(o-inf),"[15]; 6 mg/kg/day, Day 1",734.8 ng·h/mL
same,Total AUC(o-inf),"[15]; 12 mg/kg/day, Day 1",936.4 ng·h/mL
same,Cmax,"[15]; 0.1 mg/kg/day, Day 1, read-out: mean Cmax plasma levels",0.6 ng/mL
same,Cmax,"[15]; 0.1 mg/kg/day, Day 14, read-out: group mean Cmax plasma levels",0.4 ng/mL
same,Cmax,"[15]; 0.3 mg/kg/day, Day 1, read-out: mean Cmax plasma levels",2.3 ng/mL
same,Cmax,"[15]; 0.3 mg/kg/day, Day 14, read-out: group mean Cmax plasma levels",3.8 ng/mL
same,Cmax,"[15]; 1 mg/kg/day, Day 1, read-out: mean Cmax plasma levels",8.6 ng/mL
same,Cmax,"[15]; 3 mg/kg/day, Day 1, read-out: mean Cmax plasma levels",23.8 ng/mL
same,Cmax,"[15]; 6 mg/kg/day, Day 1, read-out: mean Cmax plasma levels",114 ng/mL
same,Cmax,"[15]; 12 mg/kg/day, Day 1, read-out: mean Cmax plasma levels",182 ng/mL
same,Tmax,"[15]; 0.1 and 0.3 mg/kg/day, Day 14",1 h
same,half-life,"[15]; 0.1 and 0.3 mg/kg/day, Day 14, read-out: terminal elimination half-lives",282 to 330 min
same,Tmax,"[15]; all doses, Day 1",1 to 2 h
same,half-life,"[15]; all doses, Day 1, read-out: elimination half-life",204 to 372 min
same,tolerability,[15]; daily oral 0.1 and 0.3 mg/kg/day for 14 days and 1 mg/kg/day for 6 days,well-tolerated
same,tolerability,"[15]; daily oral 3, 6, and 12 mg/kg/day for 14 days",not well-tolerated
same,Tumor growth inhibition,"[16]; once weekly 15 mg/kg/day, p 0.002",74% (0.002)/
same,Tumor growth inhibition,"[16]; once weekly 30 mg/kg/day, p 0.001",84% (0.001)
same,tumor growth,[16]; once weekly 60 mg/kg,complete block of tumor growth
same,Tumor growth inhibition,"[16]; once weekly 60 mg/kg/day single dose, p <0.001",99% (<0.001)/*6 weeks
